This assay concerns the target T1, P2X3 (Homo sapiens, UniProt P56373).
T1 construct: expressed in transfected cells; host or cells: HEK293
T1 sequence (P56373 1-397): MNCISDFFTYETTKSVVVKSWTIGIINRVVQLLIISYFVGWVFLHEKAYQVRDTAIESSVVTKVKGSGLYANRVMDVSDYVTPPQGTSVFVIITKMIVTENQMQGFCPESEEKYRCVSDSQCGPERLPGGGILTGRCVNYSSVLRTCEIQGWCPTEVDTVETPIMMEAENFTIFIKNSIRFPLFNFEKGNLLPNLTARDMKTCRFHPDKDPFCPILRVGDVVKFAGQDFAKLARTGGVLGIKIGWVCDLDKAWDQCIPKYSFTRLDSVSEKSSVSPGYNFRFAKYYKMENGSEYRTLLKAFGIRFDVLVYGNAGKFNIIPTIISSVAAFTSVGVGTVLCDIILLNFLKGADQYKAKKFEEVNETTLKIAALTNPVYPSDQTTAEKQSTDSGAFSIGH
In words: P2X3 Antagonist Assay (FLIPR calcium, Fluo-8, HEK293 cells transfected with human ion channel cDNAs, αβ-meATP stimulation). The class given is cell-based. Conditions: antagonist mode, αβ-meATP 3 μM; for inhibition at 1 µM: HEK293, @ 1 μM, read-out: P2X3 IC50 column, given as % @ 1 μM. The protocol:
Example 59: P2X3 Antagonist Assay
HEK293 were transiently or stably transfected with human ion channel cDNAs as indicated in section 1. Stable transfectants were selected by coexpression with the antibiotic-resistance gene(s) incorporated into the expression plasmid(s). Selection pressure was maintained by including selection antibiotics in the culture medium. HEK293 cells were cultured in Dulbecco's Modified Eagle Medium/Nutrient Mixture F-12 (D-MEM/F-12) supplemented with 10% fetal bovine serum, 100 U/mL penicillin G sodium, 100 J·Lg/mL streptomycin sulfate and appropriate selection antibiotics.
The effect of each test article to act as an antagonist was evaluated. Each test article was evaluated at eight (8) concentrations (0.001, 0.003, 0.01, 0.03, 0.1, 0.3, 1 and 3 μM, n=3) with 4 replicates for each concentration. Experiments were performed with the FLIPR calcium sensitive dye kit (Fluo-8 dye, AAT, Bioquest) according to the manufacturer's instructions. • Dye-loading: Growth media will be removed and add 20 μL of Mg^++-free HBPS containing Fluo-8 for 30 min at 37° C. • Preincubation (FLIPR step 1): Adding 5× (5 μL) test, vehicle, or control article solutions in Mg^+-free HBPS to each well for 20 minutes at room temperature, protected from light. • Stimulation (FLIPR step 2): After pre-incubation, cells will be stimulated with 6× (5 μL) αβ-meATP at final concentration of 3 μM prepared in Mg^++-free HBPS. • Non-Specific Calcium Influx (FLIPR step 3): 5 minutes after stimulation solution addition, non-specific calcium influx will be activated by adding 7×(5 μL) ionomycin at a final concentration of 5 μM. Fluorescence will be recorded continuously during FLIPR steps 2 and 3. • Positive Control Antagonist: PPADS (1 mM).
Data acquisition was performed via the FLIPRControl software that is supplied with the FLIPR System (MDS-AT) and data was analyzed using Microsoft Excel2003 (Microsoft Corp., Redmond, WA).

The results in this text go back to patent publication US12655145B2, “P2X3 modulators” (GlaxoSmithKline Intellectual Property (No. 3) Limited, priority 2020, dated 2026).

The IC50 is the midpoint of a concentration-inhibition curve.

For the molecule `CNC(=O)c1cc(F)c(-c2nc3cc(C)ccn3c2C[C@H]2CN(C(=O)OC)CCO2)c(F)c1F` [Compound A6, methyl (S)-2-((7-methyl-2-(2,3,6-trifluoro-4-(methylcarbamoyl)-phenyl)imidazo[1,2-a]pyridin-3-yl)methyl)morpholine-4-carboxylate], the IC50 was less than 0.1 µM. The same measure, in the same setting: the figure for `CNC(=O)c1ccc(-c2nc3cc(Cl)ccn3c2C[C@H]2CN(C(=O)OC)CCO2)c(C)c1` [Compound A7, methyl (S)-2-((7-chloro-2-(2-methyl-4-(methylcarbamoyl)phenyl)-imidazo[1,2-a]pyridin-3-yl)methyl)morpholine-4-carboxylate] is less than 0.1 µM; for `CNC(=O)c1ccc(-c2nc3cc(C)ccn3c2C[C@H]2CN(C(=O)OC)CCO2)c(Cl)c1` [Compound A8, methyl (S)-2-((2-(2-chloro-4-(methylcarbamoyl)phenyl)-7-methyl-imidazo[1,2-a]pyridin-3-yl)methyl)morpholine-4-carboxylate] it is less than 0.1 µM; for `CNC(=O)c1ccc(-c2nc3cc(Cl)ccn3c2C[C@H]2CN(C(=O)OC)CCO2)c(Cl)c1` [Compound A9, methyl (S)-2-((2-(2-chloro-4-(methylcarbamoyl)phenyl)-7-chloro-imidazo[1,2-a]pyridin-3-yl)methyl)morpholine-4-carboxylate] it is less than 0.1 µM. On to `CNC(=O)c1ccc(-c2nc3cc(C)ccn3c2C[C@H]2CN(C(=O)OC)CCO2)c(F)c1` [Compound A10, methyl (S)-2-((2-(2-fluoro-4-(methylcarbamoyl)phenyl)-7-methylimidazo[1,2-a]pyridin-3-yl)methyl)morpholine-4-carboxylate], for which the IC50 is less than 0.1 µM. Consider `CNC(=O)c1ccc(-c2nc3cc(Cl)ccn3c2C[C@H]2CN(C(=O)OC)CCO2)c(F)c1` [Compound A11, methyl (S)-2-((2-(2-fluoro-4-(methylcarbamoyl)phenyl)-7-chloroimidazo[1,2-a]pyridin-3-yl)methyl)morpholine-4-carboxylate], for which the IC50 was less than 0.1 µM.

As for `CNC(=O)c1cc(C)c(-c2nc3cc(C)ccn3c2C[C@H]2CN(C(=O)OC)CCO2)cc1F` [Compound A12, methyl (S)-2-((2-(5-fluoro-2-methyl-4-(methylcarbamoyl)phenyl)-7-methylimidazo[1,2-a]pyridin-3-yl)methyl)morpholine-4-carboxylate], the 50% inhibitory concentration (IC50) was less than 0.1 µM.

Regarding `CNC(=O)c1cc(C)c(-c2nc3cc(Cl)ccn3c2C[C@H]2CN(C(=O)OC)CCO2)cc1F` [Compound A13, methyl (S)-2-((7-chloro-2-(5-fluoro-2-methyl-4-(methylcarbamoyl)phenyl)imidazo[1,2-a]pyridin-3-yl)methyl)morpholine-4-carboxylate], the half-maximal inhibitory concentration (IC50) is less than 0.1 µM. Still for that read-out and setting: the figure for `CNC(=O)c1cc(F)c(-c2nc3cc(C)ccn3c2CC2CCN(C(=O)OC)CC2)c(F)c1` [Compound A20, methyl 4-((2-(2,6-difluoro-4-(methylcarbamoyl)phenyl)-7-methylimidazo[1,2-a]pyridin-3-yl)methyl)piperidine-1-carboxylate] is less than 0.1 µM. Same read-out and setting: the value for `CNC(=O)c1cc(F)c(-c2cc3cc(C)ccc3n2C[C@H]2CN(C(=O)OC)CCO2)c(F)c1` [Compound A23, methyl (S)-2-((2-(2,6-difluoro-4-(methylcarbamoyl)phenyl)-5-methyl-1H-indol-1-yl)methyl)morpholine-4-carboxylate] was 0.1 to 1 µM. For the molecule `CNC(=O)c1cc(F)c(-c2[nH]c3cc(C)ccc3c2C[C@H]2CN(C(=O)OC)CCO2)c(F)c1` [Compound A24, methyl (S)-2-((2-(2,6-difluoro-4-(methylcarbamoyl)phenyl)6-methyl-1H-indol-3-yl)methyl)morpholine-4-carboxylate], the inhibition at 1 µM was found to be 10%. `CNC(=O)c1cc(F)c(-c2cc3cc(C)cnc3n2C[C@H]2CN(C(=O)OC)CCO2)c(F)c1` [Compound A25, methyl (S)-2-((2-(2,6-difluoro-4-(methylcarbamoyl)phenyl)-5-methyl-1H-pyrrolo[2,3-b]pyridin-1-yl)methyl)morpholine-4-carboxylate]: the IC50 was more than 1 µM.

For the molecule `CNC(=O)c1cc(F)c(-c2[nH]c3cc(C)cnc3c2C[C@H]2CN(C(=O)OC)CCO2)c(F)c1` [Compound A26, methyl (S)-2-((2-(2,6-difluoro-4-(methylcarbamoyl)phenyl)-6-methyl-1H-pyrrolo[3,2-b]pyridin-3-yl)methyl)morpholine-4-carboxylate], the IC50 was more than 1 µM. `CNC(=O)c1cc(F)c(-c2nc3cc(C)cnn3c2C[C@H]2CN(C(=O)OC)CCO2)c(F)c1` [Compound A27, methyl (S)-2-((2-(2,6-difluoro-4-(methylcarbamoyl)phenyl)-7-methylimidazo[1,2-b]pyridazin-3-yl)methyl)morpholine-4-carboxylate]: the inhibition at 1 µM was found to be 6%. For the molecule `CNC(=O)c1cc(F)c(-c2nc3nc(C)ccn3c2C[C@H]2CN(C(=O)OC)CCO2)c(F)c1` [Compound A28, methyl (S)-2-((2-(2,6-difluoro-4-(methylcarbamoyl)phenyl)-7-methylimidazo[1,2-a]pyrimidin-3-yl)methyl)morpholine-4-carboxylate], the IC50 is less than 0.1 µM. For the molecule `CNC(=O)c1cc(F)c(-c2nc3cc(C)ncn3c2C[C@H]2CN(C(=O)OC)CCO2)c(F)c1` [Compound A29, methyl (S)-2-((2-(2,6-difluoro-4-(methylcarbamoyl)phenyl)-7-methylimidazo[1,2-c]pyrimidin-3-yl)methyl)morpholine-4-carboxylate], the IC50 is less than 0.1 µM.

For `CNC(=O)c1cc(F)c(-c2nc3cc(C)ccn3c2C[C@H]2CN(C(=O)OC)CCO2)c(OC)c1F` [Compound A30, methyl (S)-2-((2-(3,6-difluoro-2-methoxy-4-(methylcarbamoyl)-phenyl)-7-methylimidazo[1,2-a]pyridin-3-yl)methyl)morpholine-4-carboxylate], the IC50 was less than 0.1 µM.

As to `CNC(=O)c1cc(F)c(-c2[nH]c3cccc(C)c3c2C[C@H]2CN(C(=O)OC)CCO2)c(F)c1` [Compound A31, methyl (S)-2-((2-(2,6-difluoro-4-(methylcarbamoyl)phenyl)-4-methyl-1H-indol-3-yl)methyl)morpholine-4-carboxylate], the IC50 was more than 1 µM. With `CNC(=O)c1ccc(-c2nc3cc(C(F)F)ccn3c2C[C@H]2CN(C(=O)OC)CCO2)c(Cl)c1` [Compound A32, methyl (S)-2-((2-(2-chloro-4-(methylcarbamoyl)phenyl)-7-(di-fluoromethyl)imidazo[1,2-a]pyridin-3-yl)methyl)morpholine-4-carboxylate], the IC50 was less than 0.1 µM. In the case of `CNC(=O)c1cc(F)c(-c2c(C[C@H]3CN(C(=O)OC)CCO3)nc3nc(C)ccn23)c(F)c1` [Compound A33, methyl (S)-2-((3-(2,6-difluoro-4-(methylcarbamoyl)phenyl)-7-methylimidazo[1,2-a]pyrimidin-2-yl)methyl)morpholine-4-carboxylate], the inhibition at 1 µM was found to be 5%. Take `CNC(=O)c1cc(F)c(-c2nc3n(c2C[C@H]2CN(C(=O)OC)CCO2)CCC(C)C3)c(F)c1` (stereo partly drawn) [Compound A34, methyl (2S)-2-((2-(2,6-difluoro-4-(methylcarbamoyl)phenyl)-7-methyl-5,6,7,8-tetrahydroimidazo[1,2-a]pyridin-3-yl)methyl)morpholine-4-carboxylate]: the IC50 lay in the range of 0.1 to 1 µM. As for `CNC(=O)c1cc(F)c(-c2c(C[C@H]3CN(C(=O)OC)CCO3)nc3cc(C)ncn23)c(F)c1` [Compound A37], the IC50 fell in the range of 0.1 to 1 µM. Regarding `CNC(=O)c1cc(F)c(-c2nc3cc(Cl)ccn3c2C[C@H]2CN(C(=O)OC)CCO2)c(OC)c1F` [Compound A40, methyl (S)-2-((7-chloro-2-(3,6-difluoro-2-methoxy-4-(methyl-carbamoyl)phenyl)imidazo[1,2-a]pyridin-3-yl)methyl)morpholine-4-carboxylate], the half-maximal inhibitory concentration (IC50) was less than 0.1 µM. Still for that read-out and setting: the value for `CNC(=O)c1cc(F)c(-c2nc3cc(C(F)F)ccn3c2C[C@H]2CN(C(=O)OC)CCO2)c(OC)c1F` [Compound A41, methyl (S)-2-((2-(3,6-difluoro-2-methoxy-4-(methylcarbamoyl)-phenyl)-7-(difluoromethyl)imidazo[1,2-a]pyridin-3-yl)methyl)morpholine-4-carboxylate] was 0.1 to 1 µM.
